Results as given in patent publication US12303497B2, “Anti-androgens for the treatment of metastatic castration-sensitive prostate cancer” (priority 2019, dated 2025).

System: patients with metastatic castration-sensitive prostate cancer (mCSPC)
Details: Grade ≥3

SMILES: CNC(=O)c1ccc(N2C(=S)N(c3cnc(C#N)c(C(F)(F)F)c3)C(=O)C23CCC3)cc1F [Apalutamide, 4-[7-(6-cyano-5-trifluoromethylpyridin-3-yl)-8-oxo-6-thioxo-5,7-diazaspiro[3.4]oct-5-yl]-2-fluoro-N-methylbenzamide]
- AE leading to discontinuation: Lip swelling: 0 no. (%)
- AE leading to discontinuation: Loss of consciousness: 0 no. (%)
- AE leading to discontinuation: New cancer neoplasm: 5 (1.0) no. (%)
- AE leading to discontinuation: Parkinson's disease: 1 (0.2) no. (%)
- AE leading to discontinuation: Pleural effusion: 0 no. (%)
- AE leading to discontinuation: Pulmonary edema: 0 no. (%)
- AE leading to discontinuation: Pulmonary embolism: 1 (0.2) no. (%)
- AE leading to discontinuation: Radiculopathy: 1 (0.2) no. (%)
- AE leading to discontinuation: Rash (grouped term): 7 (1.3) no. (%)
- AE leading to discontinuation: Respiratory failure: 0 no. (%)
- AE leading to discontinuation: Seizure: 1 (0.2) no. (%)
- AE leading to discontinuation: Subdural hemorrhage: 0 no. (%)
- AE leading to discontinuation: Sudden cardiac death: 1 (0.2) no. (%)
- AE leading to discontinuation: Sudden death: 0 no. (%)
- AE leading to dose interruption: Anxiety: 0 no. (%)
- AE leading to dose interruption: Arthralgia: 0 no. (%)
- AE leading to dose interruption: Aspartate aminotransferase or alanine aminotransferase increased: 4 (0.8) no. (%)
- AE leading to dose interruption: Asthenia: 3 (0.6) no. (%)
- AE leading to dose interruption: Atrial fibrillation: 1 (0.2) no. (%)
- AE leading to dose interruption: Bile duct obstruction: 0 no. (%)
- AE leading to dose interruption: Blood alkaline phosphatase increased: 1 (0.2) no. (%)
- AE leading to dose interruption: Cardiac amyloidosis: 0 no. (%)
- AE leading to dose interruption: Cardiac disorder: 0 no. (%)
- AE leading to dose interruption: Cardiac failure: 0 no. (%)
- AE leading to dose interruption: Cardiac failure congestive: 1 (0.2) no. (%)
- AE leading to dose interruption: Cerebrovascular accident: 1 (0.2) no. (%)
- AE leading to dose interruption: Cheilitis: 0 no. (%)
- AE leading to dose interruption: Chronic hepatitis: 0 no. (%)
- AE leading to dose interruption: Chronic obstructive pulmonary disease: 2 (0.4) no. (%)
- AE leading to dose interruption: Cognitive disorder: 1 (0.2) no. (%)
- AE leading to dose interruption: Confusional state: 1 (0.2) no. (%)
- AE leading to dose interruption: Constipation: 0 no. (%)
- AE leading to dose interruption: Decreased appetite: 1 (0.2) no. (%)
- AE leading to dose interruption: Dehydration: 0 no. (%)
- AE leading to dose interruption: Depression: 0 no. (%)
- AE leading to dose interruption: Diabetes mellitus: 1 (0.2) no. (%)
- AE leading to dose interruption: Diarrhea: 0 no. (%)
- AE leading to dose interruption: Diplegia: 0 no. (%)
- AE leading to dose interruption: Dizziness: 0 no. (%)
- AE leading to dose interruption: Dyspnea: 0 no. (%)
- AE leading to dose interruption: Dysuria: 1 (0.2) no. (%)
- AE leading to dose interruption: Edema: 0 no. (%)
- AE leading to dose interruption: Eyelid edema: 0 no. (%)
- AE leading to dose interruption: Facial edema: 0 no. (%)
- AE leading to dose interruption: Fall: 1 (0.2) no. (%)
- AE leading to dose interruption: Fatigue: 1 (0.2) no. (%)
- AE leading to dose interruption: Febrile neutropenia: 1 (0.2) no. (%)
- AE leading to dose interruption: Gamma-glutamyltransferase increased: 1 (0.2) no. (%)
- AE leading to dose interruption: Gastric ulcer perforation: 1 (0.2) no. (%)
- AE leading to dose interruption: Gastritis: 0 no. (%)
- AE leading to dose interruption: General physical health deterioration: 1 (0.2) no. (%)
- AE leading to dose interruption: Hallucination: 0 no. (%)
- AE leading to dose interruption: Headache: 0 no. (%)
- AE leading to dose interruption: Hematoma: 1 (0.2) no. (%)
- AE leading to dose interruption: Hematuria: 2 (0.4) no. (%)
- AE leading to dose interruption: Hemorrhage intracranial: 1 (0.2) no. (%)
- AE leading to dose interruption: Hemorrhagic erosive gastritis: 1 (0.2) no. (%)
- AE leading to dose interruption: Hepatic cirrhosis: 0 no. (%)
- AE leading to dose interruption: Hepatic failure: 0 no. (%)
- AE leading to dose interruption: Hip fracture: 1 (0.2) no. (%)
- AE leading to dose interruption: Hot flush: 0 no. (%)
- AE leading to dose interruption: Hydronephrosis: 0 no. (%)
- AE leading to dose interruption: Hyperbilirubinemia: 1 (0.2) no. (%)
- AE leading to dose interruption: Hypersensitivity: 0 no. (%)
- AE leading to dose interruption: Hypertension: 6 (1.1) no. (%)
- AE leading to dose interruption: Hypertriglyceridemia: 2 (0.4) no. (%)
- AE leading to dose interruption: Hypokalemia: 1 (0.2) no. (%)
- AE leading to dose interruption: Hyponatremia: 1 (0.2) no. (%)
- AE leading to dose interruption: Infections: 4 (0.8) no. (%)
- AE leading to dose interruption: Influenza-like illness: 0 no. (%)
- AE leading to dose interruption: Insomnia: 0 no. (%)
- AE leading to dose interruption: Ischemic cardiac events: 1 (0.2) no. (%)
- AE leading to dose interruption: Large intestinal ulcer perforation: 1 (0.2) no. (%)
- AE leading to dose interruption: Mental status changes: 0 no. (%)
- AE leading to dose interruption: Muscular weakness: 0 no. (%)
- AE leading to dose interruption: Musculoskeletal stiffness: 0 no. (%)
- AE leading to dose interruption: Nausea: 0 no. (%)
- AE leading to dose interruption: Neutropenia: 2 (0.4) no. (%)
- AE leading to dose interruption: New cancer neoplasm: 1 (0.2) no. (%)
- AE leading to dose interruption: Osteoarthritis: 0 no. (%)
- AE leading to dose interruption: Osteoporosis: 0 no. (%)
- AE leading to dose interruption: Pain (grouped term): 4 (0.8) no. (%)
- AE leading to dose interruption: Pathological fracture: 0 no. (%)
- AE leading to dose interruption: Peripheral edema: 0 no. (%)
- AE leading to dose interruption: Peripheral swelling: 0 no. (%)
- AE leading to dose interruption: Proctalgia: 0 no. (%)
- AE leading to dose interruption: Pyrexia: 0 no. (%)
- AE leading to dose interruption: Rash (grouped term): 20 (3.8) no. (%)
- AE leading to dose interruption: Renal injury: 0 no. (%)
- AE leading to dose interruption: Rheumatoid arthritis: 1 (0.2) no. (%)
- AE leading to dose interruption: Seizure: 0 no. (%)
- AE leading to dose interruption: Spinal cord compression: 1 (0.2) no. (%)
- AE leading to dose interruption: Stomatitis: 0 no. (%)
- AE leading to dose interruption: Subarachnoid hematoma: 1 (0.2) no. (%)
- AE leading to dose interruption: Subarachnoid hemorrhage: 0 no. (%)
- AE leading to dose interruption: Subdural hemorrhage: 0 no. (%)
